Data: patent US20160106439A1, “PNEUMATIC TOURNIQUET” (BIONUMERIK PHARMACEUTICALS, INC., priority 2013, published 2016)
Entries after “also recorded” stand apart in the source; their conditions may differ. Like-named read-outs stand apart in the source and are kept apart here.

Assays:
[1] = target: T1, human glutaredoxin (Grx1) (Homo sapiens, UniProt P35754); assay: Mass Spectroscopy of Grx-Tavocept reaction; format: binding; details: 40 mM Tavocept, 4° C. overnight
T1 construct: 6xHis (TEV-cleavable) (N, cleaved yes); made in house; host or cells: E. coli BL21 (RIPL)

ROS1 kinase = ROS1 kinase (Homo sapiens, UniProt P08922); details: for effect on crizotinib inhibition of ROS1 kinase activity: ATP and polyGT
Protocol: The substrate that was phosphorylated by the kinase, polyglutamate-tyrosine (PolyGT), was purchased from Sigma (P0275, lot 120M5007V).
All other reagents were purchased from Sigma Aldrich. A Tecan Ultra microplate reader with XFluor4 software (Tecan, V4.51) and RdrOle software (Tecan, V4.50) were used in this study.
ROS1 kinase phosphorylated the polyGT substrate using the ATP cofactor and produced ADP. […] The reactions, in microtubes, were incubated for 60 minutes at 25° C. in a water bath. Following this 60 minute incubation, 10 μL aliquots were transferred to microplates and the kinase activity was evaluated using the Promega ADP-glo system that monitored, in an endpoint assay, ADP produced when ROS1 kinase phosphorylated the PolyGT substrate.
It should be noted that numerous controls were tested and included the assay components indicated in the columns of Table 10 below (where + indicates the component was included and an empty space indicates it was not included).
The Kinase Assays, as described in Section II above, were run in triplicate or quadruplicate in microplates. Following these assays, the ADP-glo detection system (Promega) was used to determine how much ADP had been produced.
For 10 μL volume assays, to each microplate well containing 10 μL of kinase reaction was added ADP-glo reagent (10 μL), the microplates were spun in a table top centrifuge (1000 rpm (123×g) for 1 minute) to ensure that no reagent remained on the walls of the individual wells, and then agitated for 1 minute to ensure optimal mixing. The microplates were incubated at 25° C. on a heat block for 40 minutes. Kinase detection reagent (20 μL) was then added and, as above, centrifugation and agitation was repeated; with the microplates being allowed to incubate at 25° C.±1° C. on a heat block for 40 minutes. Following the incubation of the kinase detection reagent, the microplates were read on a Tecan Ultra microplate reader. The Tecan Ultra contained a built-in plate definition file for the whole area 96-well, white Corning microplates; however a microplate definition file for the half area 96-well Corning plates was created using the RdrOle component of the Tecan Ultra software.
Therefore, each mole of PolyGT polymer of 20,000 g/mole would contain approximately 28 moles of the glu-glu-glu-glu-tyr “subpolymer.”
Typically, a 10 μL assay volume would contain 2 μg of the polyGT substrate. Assuming the lower polymer mass of 20,000 g/mol mass, this translates to approximately 10 μM polyGT per assay and […] glu-glu-glu-glu-tyr “subpolymer” per assay.
Data from ROS1 kinase assays run on the Tecan Ultra microplate spectrophotometer were collected in Microsoft Excel. Error calculations and graphical representations were performed in Microsoft Office Excel (Microsoft Corporation, Redmond, Wash., USA). Determination of IC25, IC50 and IC75 values were accomplished using Origin Lab software (OriginLab Corporation, Northampton, Mass., USA).

[2] = test system: bovine brain microtubule protein (α-/β-tubulin); assay: Microtubule protein polymerization assay (OD350) and electron microscopy; format: biochemical
[3] = target: T2, E13K, D16K, E95K, E103K Thioredoxin (Homo sapiens, UniProt P10599, D16K/E103K/E13K/E95K); assay: X-ray crystallography of Tavocept-derived mesna adduct on Trx; format: binding; details: 40 mM Tavocept
T2 construct: made in house; host or cells: E. coli BL21(DE3), pET-15b system
T2 sequence (P10599 1-105 E13K/D16K/E95K/E103K): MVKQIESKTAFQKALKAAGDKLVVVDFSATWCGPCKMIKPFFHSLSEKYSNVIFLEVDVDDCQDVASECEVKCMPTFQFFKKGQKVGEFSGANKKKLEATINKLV
Protocol: Adduct was prepared as described above with some modifications designed to increase the likelihood of success in crystallization of the protein. […] This reaction was incubated for 1 hour at 30° C. followed by overnight incubation at 4° C. […] Aliquots of this solution were analyzed by ESI LC-MS to confirm the presence of adduct(s) prior to initiation of crystallization experiments.
These initial broad screens produced crystals under a wide range of conditions (data not shown) and the screens used included: (i) PEGION, CRYSTALS HT, and PEGRX (Hampton Research) and (ii) JCSG and BASIC (JENA Biosciences). Multiple rounds of optimization were completed and included fine screens, varying the protein concentration and varying the protein to reservoir ratios to obtain diffraction quality crystals. In the Trx pH 9.0/8.5 structure (adduct formed at pH 9.0, crystals grown at pH 8.5), the best crystals were obtained in 20% ethanol, 0.1 M Tris (at 60 mg/mL Trx protein) and diffracted to 2.5 Å (C2 space group). In Trx pH 9.0/7.0 (adduct formed at pH 9.0, crystals grown at pH 7.0), the best crystals were obtained in 20% PEG3350, 0.2 M KCl (60 mg/mL Trx protein) and diffracted to 2.8 Å (C2 space group). In Trx pH 7.0/7.0 (adduct formed at pH 7.0, crystals grown at pH 7.0), the best crystals were obtained in 28% PEG3350, 0.2M KCl (160 mg/mL Trx protein) and diffracted to 1.85 Å resolution (P21 space group).
The solution obtained was consistent with four molecules in the crystal asymmetric unit. […] Molecules C and D were substantially rebuilt and the Tavocept-derived mesna adduct added after protein rebuilding was complete. The structure solution was supported by contiguous electron density for the entire chain trace of each molecule, landmark side chain density features matching the amino acid sequence including cysteines, absence of phi-psi violations, and final R/Rfree values in the normal range. […] For the Trx pH 9.0/8.5 structure, residual density observed near Cys69 of molecule A was modeled as a Tavocept-derived mesna adduct in a dual conformation. […]

Chain of ROS1 kinase (P08922 1883-2347): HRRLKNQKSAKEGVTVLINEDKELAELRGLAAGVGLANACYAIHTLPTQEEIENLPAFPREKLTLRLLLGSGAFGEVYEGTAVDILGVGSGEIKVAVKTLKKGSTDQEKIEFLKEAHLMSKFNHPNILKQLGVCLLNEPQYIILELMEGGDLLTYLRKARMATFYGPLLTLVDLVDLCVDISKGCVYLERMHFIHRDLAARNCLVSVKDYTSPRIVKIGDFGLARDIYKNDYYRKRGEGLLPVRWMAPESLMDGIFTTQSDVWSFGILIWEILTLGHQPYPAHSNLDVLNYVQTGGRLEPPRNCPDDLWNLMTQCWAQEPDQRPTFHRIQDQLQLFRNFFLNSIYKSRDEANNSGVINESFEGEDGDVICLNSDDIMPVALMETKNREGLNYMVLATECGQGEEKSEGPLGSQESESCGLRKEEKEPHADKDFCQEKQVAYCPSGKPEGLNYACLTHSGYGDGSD
T1 sequence (P35754 whole entry): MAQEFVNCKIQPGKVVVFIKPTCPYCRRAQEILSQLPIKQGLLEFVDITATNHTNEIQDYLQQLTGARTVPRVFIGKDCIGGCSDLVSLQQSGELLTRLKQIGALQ

O=S(=O)([O-])CCSSCCS(=O)(=O)[O-].[Na+].[Na+] [Tavocept, disodium 2,2′-dithio-bis-ethane sulfonate]
Tavocept-derived mesna adducts per molecule of Grx [1]: one to two | loss of ROS1 kinase activity (ROS1 kinase; 5 mM Tavocept incubated with ROS1 for 24 hours prior to ATP and polyGT, 100 μM ATP): 15% | loss of ROS1 kinase activity (ROS1 kinase; 10 mM Tavocept incubated with ROS1 for 3 hours prior to ATP and polyGT, 100 μM ATP): 16% | loss of ROS1 kinase activity (ROS1 kinase; 10 mM Tavocept incubated with ROS1 for 24 hours prior to ATP and polyGT, 100 μM ATP): 31% | loss of ROS1 kinase activity (ROS1 kinase; 20 mM Tavocept incubated with ROS1 for 3 hours prior to ATP and polyGT, 100 μM ATP): 26% | loss of ROS1 kinase activity (ROS1 kinase; 20 mM Tavocept incubated with ROS1 for 24 hours prior to ATP and polyGT, 100 μM ATP): 48% | effect on ROS1 kinase activity (ROS1 kinase; Tavocept (2.5-20 mM) added simultaneously with ATP and polyGT): did not have a notable effect; also recorded: no discernible | effect on crizotinib inhibition of ROS1 kinase activity (ROS1 kinase; Tavocept (2.5 to 20 mM) incubated with ROS1 for 3 or 24 hours prior to crizotinib): additive manner | effect on crizotinib inhibition of ROS1 kinase activity (ROS1 kinase; Tavocept (2.5 to 20 mM) incubated with ROS1 for 3 or 24 hours prior to crizotinib, listed as BNP7787): additive effect | effect on crizotinib inhibition of ROS1 kinase activity (ROS1 kinase; Tavocept added simultaneously with crizotinib, 100 μM ATP): did not affect; also recorded: no discernible | effect on paclitaxel-induced hyperpolymerization of MTP [2]: normalizes | inhibition of paclitaxel promoted microtubule protein polymerization ([2]; 12 mM Tavocept, paclitaxel 10 μM): approximately 50% | Tavocept concentration giving final polymerization equal to GTP control ([2]; MTP exposed to paclitaxel): ≥ 6 mM | Tavocept concentration inhibiting paclitaxel (10 μM) promoted hyperpolymerization ([2]; paclitaxel 10 μM): > 1 mM | Tavocept concentration giving net polymerization equivalent to GTP/MgCl2 only control ([2]; paclitaxel/GTP/MgCl2 10 μM/1 mM/1 mM): 6 to 8 mM | microtubules visible on electron microscopy grids ([2]; preincubated 20 minutes on ice, with and without paclitaxel, qualitative): reduction in the abundance of microtubules | effect on GTP-catalyzed microtubule protein polymerization ([2]; preincubated with microtubule protein on ice 20 minutes, 37° C.): dose-dependent inhibitory effect; also recorded: inhibit GTP-catalyzed polymerization; also recorded: concentration dependent manner | Tavocept-derived mesna adduct sites on Trx ([3]; Trx pH 7.0/7.0 structure): clearly visible on Cys69 in both molecules A and B | Tavocept-derived mesna adduct sites on Trx ([3]; Trx pH 9.0/7.0 structure): clearly visible on both Cys69 and Cys62 in both molecules A and B | Tavocept-derived mesna adduct sites on Trx ([3]; Trx pH 9.0/8.5 structure): clearly visible on Cys69 in both molecules A and B
